How the values were obtained:
Penicillium decumbens = test: Inhibition of Penicillium decumbens alpha-L-rhamnosidase assessed as reduction of p-nitrophenol release using p-nitrophenyl-glycoside as substrate at 1000 uM by spectrophotometric analysis relative to control
[1] = Inhibition of almond beta-glucosidase assessed as reduction of p-nitrophenol release using p-nitrophenyl glycoside as substrate by spectrophotometric analysis; parameters: species or system Prunus dulcis
Helix pomatia = test: Inhibition of snail beta-mannosidase assessed as reduction of p-nitrophenol release using p-nitrophenyl glycoside as substrate at 1000 uM by spectrophotometric analysis relative to control
[2] = Inhibition of bovine liver beta-galactosidase assessed as reduction of p-nitrophenol release using p-nitrophenyl glycoside as substrate by spectrophotometric analysis; parameters: species or system Bos taurus
[3] = Inhibition of Aspergillus niger amyloglucosidase assessed as reduction of p-nitrophenol release using p-nitrophenyl-glycoside as substrate by spectrophotometric analysis
Sus scrofa = organism: Sus scrofa; test: Inhibition of porcine kidney alpha/alpha-trehalase assessed as reduction of p-nitrophenol release using p-nitrophenyl glycoside as substrate at 1000 uM by spectrophotometric analysis relative to control
Rattus norvegicus = organism: Rattus norvegicus; test: Inhibition of rat intestinal maltase assessed as D-glucose release using maltose as substrate at pH 6.8 at 1000 uM by colorimetric method relative to control
[4] = biological target: T1, Tissue alpha-L-fucosidase (Bos taurus) (UniProt Q2KIM0); test: Inhibition of bovine kidney alpha-L-fucosidase assessed as reduction of p-nitrophenol release using p-nitrophenyl glycoside as substrate at 1000 uM by spectrophotometric analysis relative to control
T1 sequence (whole entry): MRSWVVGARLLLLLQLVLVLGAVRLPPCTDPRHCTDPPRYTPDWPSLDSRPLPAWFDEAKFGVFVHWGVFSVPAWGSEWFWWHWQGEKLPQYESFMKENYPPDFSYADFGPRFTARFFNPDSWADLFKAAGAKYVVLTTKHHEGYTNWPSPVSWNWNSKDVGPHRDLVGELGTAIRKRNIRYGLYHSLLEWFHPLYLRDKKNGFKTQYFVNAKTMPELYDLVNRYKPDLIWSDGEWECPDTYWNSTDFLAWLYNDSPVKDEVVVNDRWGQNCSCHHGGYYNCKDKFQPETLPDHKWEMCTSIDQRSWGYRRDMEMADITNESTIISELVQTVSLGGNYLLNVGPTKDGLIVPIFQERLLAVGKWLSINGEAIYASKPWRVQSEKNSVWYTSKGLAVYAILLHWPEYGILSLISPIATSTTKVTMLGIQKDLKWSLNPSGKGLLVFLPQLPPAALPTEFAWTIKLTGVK

[5] = biological target: T2, Alpha-mannosidase (Canavalia ensiformis) (UniProt C0HJB3); test: Inhibition of jack bean alpha-mannosidase assessed as reduction of p-nitrophenol release using p-nitrophenyl glycoside as substrate at 1000 uM by spectrophotometric analysis relative to control
T2 sequence (whole entry): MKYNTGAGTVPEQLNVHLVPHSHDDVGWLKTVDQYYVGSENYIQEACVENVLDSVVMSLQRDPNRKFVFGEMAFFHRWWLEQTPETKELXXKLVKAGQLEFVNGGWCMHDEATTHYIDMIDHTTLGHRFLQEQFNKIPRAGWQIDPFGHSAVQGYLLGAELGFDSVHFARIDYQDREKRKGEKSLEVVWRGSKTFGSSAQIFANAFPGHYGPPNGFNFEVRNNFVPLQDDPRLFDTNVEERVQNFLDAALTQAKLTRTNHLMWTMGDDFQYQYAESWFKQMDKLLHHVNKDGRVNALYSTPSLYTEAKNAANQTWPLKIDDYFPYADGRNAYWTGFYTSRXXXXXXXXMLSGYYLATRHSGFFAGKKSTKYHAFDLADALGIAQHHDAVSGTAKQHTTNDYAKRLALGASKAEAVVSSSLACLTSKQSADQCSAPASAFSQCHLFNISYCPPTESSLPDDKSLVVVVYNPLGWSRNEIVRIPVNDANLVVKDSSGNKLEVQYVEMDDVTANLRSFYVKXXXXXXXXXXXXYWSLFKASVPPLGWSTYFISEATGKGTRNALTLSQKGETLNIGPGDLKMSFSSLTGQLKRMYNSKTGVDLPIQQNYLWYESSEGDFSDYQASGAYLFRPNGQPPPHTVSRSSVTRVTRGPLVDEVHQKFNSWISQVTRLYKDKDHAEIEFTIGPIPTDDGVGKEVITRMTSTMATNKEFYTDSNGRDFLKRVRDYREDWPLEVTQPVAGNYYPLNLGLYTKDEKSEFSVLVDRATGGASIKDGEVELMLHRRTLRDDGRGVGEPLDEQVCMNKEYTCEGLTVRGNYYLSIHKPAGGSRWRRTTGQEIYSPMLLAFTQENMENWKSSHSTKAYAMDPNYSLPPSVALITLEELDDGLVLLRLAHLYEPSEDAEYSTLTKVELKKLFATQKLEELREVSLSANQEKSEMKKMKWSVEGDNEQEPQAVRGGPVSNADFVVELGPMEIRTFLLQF

Oryza sativa = test: Inhibition of rice alpha-glucosidase assessed as reduction of p-nitrophenol release using p-nitrophenyl glycoside as substrate at 1000 uM by spectrophotometric analysis relative to control
Alpha-glucosidase = Alpha-glucosidase (Saccharomyces cerevisiae S288c, UniProt P53341+P38158+P07265); test: Inhibition of yeast alpha-glucosidase assessed as reduction of p-nitrophenol release using p-nitrophenyl glycoside as substrate by spectrophotometric analysis; assay type: protein assay
Beta-glucuronidase = Beta-glucuronidase (Escherichia coli (strain K12), UniProt P05804); test: Inhibition of Escherichia coli beta-glucuronidase assessed as reduction of p-nitrophenol release using p-nitrophenyl-glycoside as substrate by spectrophotometric analysis
[6] = biological target: Alpha-galactosidase (Coffea arabica) (UniProt Q42656); test: Inhibition of coffee beans alpha-galactosidase assessed as reduction of p-nitrophenol release using p-nitrophenyl glycoside as substrate at 1000 uM by spectrophotometric analysis relative to control
[7] = Inhibition of bovine liver beta-glucosidase assessed as reduction of p-nitrophenol release using p-nitrophenyl glycoside as substrate by spectrophotometric analysis; parameters: species or system Bos taurus
Bos taurus = organism: Bos taurus; test: Inhibition of bovine liver beta-glucuronidase assessed as reduction of p-nitrophenol release using p-nitrophenyl-glycoside as substrate at 1000 uM by spectrophotometric analysis relative to control
[8] = biological target: Alpha-glucosidase (Saccharomyces cerevisiae S288c) (UniProt P53341+P38158+P07265); test: Inhibition of yeast alpha-glucosidase assessed as reduction of p-nitrophenol release using p-nitrophenyl glycoside as substrate at 1000 uM by spectrophotometric analysis relative to control; assay type: protein assay
[9] = Inhibition of human lysosomal beta-glucosidase assessed as reduction of p-nitrophenol release using p-nitrophenyl glycoside as substrate by spectrophotometric analysis
Aspergillus niger = test: Inhibition of Aspergillus niger amyloglucosidase assessed as reduction of p-nitrophenol release using p-nitrophenyl-glycoside as substrate at 1000 uM by spectrophotometric analysis relative to control

Sequence of Beta-glucuronidase (P05804 whole entry): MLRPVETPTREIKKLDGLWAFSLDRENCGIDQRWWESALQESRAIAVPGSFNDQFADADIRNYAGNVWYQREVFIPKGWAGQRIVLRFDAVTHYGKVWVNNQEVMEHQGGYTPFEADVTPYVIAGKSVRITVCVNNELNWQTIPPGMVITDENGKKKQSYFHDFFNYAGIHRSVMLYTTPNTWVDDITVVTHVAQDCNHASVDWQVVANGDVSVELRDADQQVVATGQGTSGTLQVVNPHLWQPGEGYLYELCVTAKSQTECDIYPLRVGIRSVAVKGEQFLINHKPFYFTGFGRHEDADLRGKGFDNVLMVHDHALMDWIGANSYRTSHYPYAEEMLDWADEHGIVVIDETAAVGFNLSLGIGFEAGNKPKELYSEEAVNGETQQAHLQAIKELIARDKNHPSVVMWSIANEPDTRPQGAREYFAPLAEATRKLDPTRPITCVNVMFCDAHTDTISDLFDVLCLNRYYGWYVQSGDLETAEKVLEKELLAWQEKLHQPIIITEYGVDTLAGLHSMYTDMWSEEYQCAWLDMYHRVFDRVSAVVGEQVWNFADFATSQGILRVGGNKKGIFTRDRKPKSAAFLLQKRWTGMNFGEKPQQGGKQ
Sequence of Alpha-galactosidase (Coffea arabica) (Q42656 16-378 limits assumed): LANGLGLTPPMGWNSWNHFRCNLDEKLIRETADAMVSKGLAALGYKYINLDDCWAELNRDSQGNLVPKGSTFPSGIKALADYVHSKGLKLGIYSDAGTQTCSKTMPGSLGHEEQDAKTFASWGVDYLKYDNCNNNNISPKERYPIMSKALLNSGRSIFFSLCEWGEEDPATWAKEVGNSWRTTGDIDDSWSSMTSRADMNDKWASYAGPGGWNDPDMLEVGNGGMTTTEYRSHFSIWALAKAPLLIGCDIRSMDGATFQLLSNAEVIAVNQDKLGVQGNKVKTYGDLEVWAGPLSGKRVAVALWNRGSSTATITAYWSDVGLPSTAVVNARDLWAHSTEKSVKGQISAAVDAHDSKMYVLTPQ

SMILES	inhibition (Penicillium decumbens)	IC50 [1]	inhibition (Helix pomatia)	IC50 [2]	IC50 [3]	inhibition (Sus scrofa)	inhibition (Rattus norvegicus)	inhibition [4]	inhibition [5]	inhibition (Oryza sativa)	IC50 (Alpha-glucosidase)	IC50 (Beta-glucuronidase)	inhibition [6]	IC50 [7]	inhibition (Bos taurus)	inhibition [8]	IC50 [9]	inhibition (Aspergillus niger)
Cl.OC[C@H]1N[C@H](CCCCCCCc2cccc(F)c2)[C@@H](O)[C@@H]1O	10%	11.5 µM	36.6%	0.011 µM	40.9 µM	7.5%	32.8%	2.7%	3.1%	21.3%	17.2 µM	19.4 µM	1.1%	0.04 µM	6.9%			
OC[C@H]1N[C@H]([C@@H](O)CCCCCCc2ccc(F)c(F)c2)[C@@H](O)[C@@H]1O	2.2%	1.5 µM	48.6%	0.026 µM	59 µM	0%	15%	0.3%	0%	18.4%		25 µM	0%	0.09 µM	1.6%	25.2%	3.8 µM	
Cl.OC[C@H]1N[C@H]([C@@H](O)CCCCCCc2ccc(Cl)cc2)[C@@H](O)[C@@H]1O	3.5%	1.2 µM	45.4%	0.024 µM		5.5%	1.1%	2.1%	0%	16.5%	59 µM	13 µM	0%	0.07 µM	0%		6.1 µM	41.7%
OC[C@H]1N[C@H]([C@@H](O)CCCCCCc2ccccc2)[C@@H](O)[C@@H]1O	3.5%	0.62 µM	37.6%	0.042 µM		4.5%	18.6%	0%	0%	15.8%		43 µM	0%	0.13 µM	0%	14.1%	7.6 µM	39.7%
Cc1ccc(CCCCCCC[C@H]2N[C@H](CO)[C@@H](O)[C@@H]2O)cc1.Cl	14.5%	10 µM	37%	0.008 µM	33 µM	3.5%	49.9%	8.6%	3.5%	34.4%	92 µM	42 µM	9.7%	0.034 µM	0%		5.2 µM	
OC[C@H]1N[C@H]([C@@H](O)CCCCCCc2ccc(F)cc2)[C@@H](O)[C@@H]1O	4%	0.47 µM	46.3%	0.025 µM		7.5%	23.9%	1.5%	0%	21.3%		62 µM	0.6%	0.09 µM	0.3%	42.8%	5.2 µM	46.4%
Cl.OC[C@H]1N[C@H](CCCCCCCc2ccc(F)cc2)[C@@H](O)[C@@H]1O	13%	15.6 µM	37.1%	0.008 µM	31.9 µM	4%	15.9%	38.7%	22.7%	11.7%	32.2 µM	34.5 µM	20.5%	0.043 µM	42.5%			
